Values after ≈ are worked out from the molar mass of the structure shown. Values belong to the compound of their own block, whether it stands above or below them. Active and inactive are the calls of the source. The calls are words filed in the database; no cut-off is given here.
Experiments:
[1] = target: Cyclin-dependent kinase 4/cyclin D1 (Homo sapiens, UniProt P11802); assay: Inhibition of CDK4/cyclin D1 (unknown origin); type: protein-complex assay
MIA PaCa-2 [2] = assay: Antiproliferative activity against human MIA PaCa-2 cells assessed as inhibition of cell growth by MTT assay; type: functional, cell-based
MIA PaCa-2 [3] = assay: Cell cycle arrest in human MIA PaCa-2 cells assessed as accumulation at G2 phase at 1.6 uM (reference value: 10.64 %); type: functional
[4] = Permeability of the compound at pH 5.0 by PAMPA; type: ADME; details: read-out: permeability
MIA PaCa-2 [5] = assay: Cell cycle arrest in human MIA PaCa-2 cells assessed as accumulation at G2 phase at 2.5 uM (reference value: 10.64 %); type: functional
MIA PaCa-2 [6] = assay: Cell cycle arrest in human MIA PaCa-2 cells assessed as accumulation at S phase at 1.6 uM (reference value: 45.27 %); type: functional
[7] = Permeability of the compound at pH 7.4 by PAMPA; type: ADME; details: read-out: permeability
MIA PaCa-2 [8] = assay: Cell cycle arrest in human MIA PaCa-2 cells assessed as accumulation at S phase at 2.5 uM (reference value: 45.27 %); type: functional
MIA PaCa-2 [9] = assay: Cell cycle arrest in human MIA PaCa-2 cells assessed as accumulation at G1 phase at 2.5 uM (reference value: 44.09 %); type: functional
[10] = Metabolic stability in human liver microsomes assessed as half life; type: ADME, Microsome
[11] = Metabolic stability in rat liver microsomes assessed as half life; type: ADME, Microsome
MIA PaCa-2 [12] = assay: Cell cycle arrest in human MIA PaCa-2 cells assessed as accumulation at S phase at 0.8 uM (reference value: 45.27 %); type: functional
BXPC-3 = assay: Antiproliferative activity against human BxPC-3 cells assessed as inhibition of cell growth by MTT assay; type: functional, cell-based
[13] = Solubility of the compound at pH 7.4; type: physicochemical; details: buffer
MIA PaCa-2 [14] = assay: Cell cycle arrest in human MIA PaCa-2 cells assessed as accumulation at G2 phase at 0.8 uM (reference value: 10.64 %); type: functional
MIA PaCa-2 [15] = assay: Cell cycle arrest in human MIA PaCa-2 cells assessed as accumulation at G1 phase at 1.6 uM (reference value: 44.09 %); type: functional
MIA PaCa-2 [16] = assay: Cell cycle arrest in human MIA PaCa-2 cells assessed as accumulation at G1 phase at 0.8 uM (reference value: 44.09 %); type: functional
[17] = target: Cyclin-dependent kinase 4 (Homo sapiens) (UniProt P11802); assay: Inhibition of CDK4 (unknown origin) at 1 uM
CDK6/cyclin D1 = CDK6/cyclin D1 (Homo sapiens, UniProt Q00534); assay: Inhibition of CDK6/cyclin D1 (unknown origin); type: protein-complex assay
[18] = target: Cyclin-dependent kinase 6 (Homo sapiens) (UniProt Q00534); assay: Inhibition of CDK6 (unknown origin) at 1 uM
[19] = target: Mitogen-activated protein kinase kinase kinase 9 (Homo sapiens) (UniProt P80192); assay: Inhibition of human MLK1 at 1 uM relative to control
MIA PaCa-2 [20] = assay: Potency index, ratio of ribociclib IC50 to test compound IC50 for antiproliferative activity against human MIA PaCa-2 cells by MTT assay; type: functional
[21] = target: CDK4/Cyclin D3 (Homo sapiens) (UniProt P11802+P30281); assay: Inhibition of human CDK4/cyclin D3 at 1 uM relative to control; type: protein-complex assay
[22] = target: Calcium/calmodulin-dependent protein kinase kinase 1 (Homo sapiens) (UniProt Q8N5S9); assay: Inhibition of human CAMKKA at 1 uM relative to control
[23] = target: Dual specificity protein kinase TTK (Homo sapiens) (UniProt P33981); assay: Inhibition of human TTK at 1 uM relative to control
MIA PaCa-2 [24] = assay: Antiproliferative activity against human MIA PaCa-2 cells assessed as inhibition of cell proliferation at 1 uM in presence of PI3K/mTOR inhibitor, BEZ235; type: functional, cell-based
[25] = target: Cyclin-dependent kinase 4/cyclin D1 (Homo sapiens) (UniProt P11802+P24385); assay: Inhibition of human CDK4/cyclin D1 at 1 uM relative to control; type: protein-complex assay
[26] = target: Calcium/calmodulin-dependent protein kinase type 1 (Homo sapiens) (UniProt Q14012); assay: Inhibition of human CAMK1 at 1 uM relative to control
MIA PaCa-2 [27] = assay: Cell cycle arrest in human MIA PaCa-2 cells assessed as accumulation at G1 phase; type: functional, cell-based; details: dose 0.8-2.5 µM
[28] = target: CDK6/cyclin D1 (Homo sapiens) (UniProt P24385+Q00534); assay: Inhibition of human CDK6/cyclin D1 at 1 uM relative to control; type: protein-complex assay
[29] = target: Tyrosine-protein kinase Fer (Homo sapiens) (UniProt P16591); assay: Inhibition of human FER at 1 uM relative to control
MIA PaCa-2 [30] = assay: Antiproliferative activity against human MIA PaCa-2 cells assessed as inhibition of cell proliferation at 0.5 uM in presence of 10 to 20 nM PI3K/mTOR inhibitor, BEZ235; type: functional, cell-based

Chain of Cyclin-dependent kinase 4/cyclin D1 (P11802 whole entry): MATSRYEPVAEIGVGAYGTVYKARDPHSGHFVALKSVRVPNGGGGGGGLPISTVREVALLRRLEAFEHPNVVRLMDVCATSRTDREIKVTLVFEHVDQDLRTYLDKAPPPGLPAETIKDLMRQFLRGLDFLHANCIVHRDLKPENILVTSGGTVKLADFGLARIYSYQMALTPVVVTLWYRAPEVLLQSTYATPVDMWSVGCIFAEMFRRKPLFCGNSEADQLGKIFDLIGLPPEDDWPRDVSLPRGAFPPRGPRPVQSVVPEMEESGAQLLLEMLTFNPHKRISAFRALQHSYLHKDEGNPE
Chain of Cyclin-dependent kinase 4/cyclin D1 (P24385 whole entry, further chain): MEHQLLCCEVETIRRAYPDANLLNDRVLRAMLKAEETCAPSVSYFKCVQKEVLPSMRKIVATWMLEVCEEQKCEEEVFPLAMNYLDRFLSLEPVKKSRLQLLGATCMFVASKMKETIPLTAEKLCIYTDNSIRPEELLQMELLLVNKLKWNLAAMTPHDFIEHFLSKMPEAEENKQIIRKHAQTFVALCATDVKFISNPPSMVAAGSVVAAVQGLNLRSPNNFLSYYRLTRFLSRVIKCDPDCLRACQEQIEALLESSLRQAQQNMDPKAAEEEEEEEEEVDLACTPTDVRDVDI
Chain of Cyclin-dependent kinase 4 (Homo sapiens) (P11802 whole entry): as the sequence (P11802 whole entry) above
Chain of Cyclin-dependent kinase 6 (Homo sapiens) (Q00534 whole entry): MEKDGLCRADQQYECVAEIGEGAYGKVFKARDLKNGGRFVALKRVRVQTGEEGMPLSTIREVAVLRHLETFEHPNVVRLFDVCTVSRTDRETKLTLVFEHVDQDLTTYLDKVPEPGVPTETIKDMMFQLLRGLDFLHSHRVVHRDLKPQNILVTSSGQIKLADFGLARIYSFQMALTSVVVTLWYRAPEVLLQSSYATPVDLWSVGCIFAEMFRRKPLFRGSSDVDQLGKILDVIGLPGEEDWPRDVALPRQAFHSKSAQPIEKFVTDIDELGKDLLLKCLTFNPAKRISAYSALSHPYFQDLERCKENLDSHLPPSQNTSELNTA
Chain of CDK6/cyclin D1 (P24385 whole entry): as the sequence (P24385 whole entry, further chain) above
Chain of CDK6/cyclin D1 (Q00534 whole entry): as the sequence (Q00534 whole entry) above
Chain of Calcium/calmodulin-dependent protein kinase type 1 (Homo sapiens) (Q14012 whole entry, looked up): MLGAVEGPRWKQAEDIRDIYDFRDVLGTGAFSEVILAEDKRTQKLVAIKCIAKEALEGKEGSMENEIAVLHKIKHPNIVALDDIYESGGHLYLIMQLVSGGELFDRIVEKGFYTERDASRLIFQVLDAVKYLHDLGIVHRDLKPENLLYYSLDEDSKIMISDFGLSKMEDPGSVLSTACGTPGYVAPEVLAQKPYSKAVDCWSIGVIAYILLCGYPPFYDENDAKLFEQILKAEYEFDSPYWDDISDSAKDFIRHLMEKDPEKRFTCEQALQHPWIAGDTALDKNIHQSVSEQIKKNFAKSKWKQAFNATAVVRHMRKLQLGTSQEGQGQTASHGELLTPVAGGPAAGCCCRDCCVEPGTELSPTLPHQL
Chain of Dual specificity protein kinase TTK (Homo sapiens) (P33981 whole entry): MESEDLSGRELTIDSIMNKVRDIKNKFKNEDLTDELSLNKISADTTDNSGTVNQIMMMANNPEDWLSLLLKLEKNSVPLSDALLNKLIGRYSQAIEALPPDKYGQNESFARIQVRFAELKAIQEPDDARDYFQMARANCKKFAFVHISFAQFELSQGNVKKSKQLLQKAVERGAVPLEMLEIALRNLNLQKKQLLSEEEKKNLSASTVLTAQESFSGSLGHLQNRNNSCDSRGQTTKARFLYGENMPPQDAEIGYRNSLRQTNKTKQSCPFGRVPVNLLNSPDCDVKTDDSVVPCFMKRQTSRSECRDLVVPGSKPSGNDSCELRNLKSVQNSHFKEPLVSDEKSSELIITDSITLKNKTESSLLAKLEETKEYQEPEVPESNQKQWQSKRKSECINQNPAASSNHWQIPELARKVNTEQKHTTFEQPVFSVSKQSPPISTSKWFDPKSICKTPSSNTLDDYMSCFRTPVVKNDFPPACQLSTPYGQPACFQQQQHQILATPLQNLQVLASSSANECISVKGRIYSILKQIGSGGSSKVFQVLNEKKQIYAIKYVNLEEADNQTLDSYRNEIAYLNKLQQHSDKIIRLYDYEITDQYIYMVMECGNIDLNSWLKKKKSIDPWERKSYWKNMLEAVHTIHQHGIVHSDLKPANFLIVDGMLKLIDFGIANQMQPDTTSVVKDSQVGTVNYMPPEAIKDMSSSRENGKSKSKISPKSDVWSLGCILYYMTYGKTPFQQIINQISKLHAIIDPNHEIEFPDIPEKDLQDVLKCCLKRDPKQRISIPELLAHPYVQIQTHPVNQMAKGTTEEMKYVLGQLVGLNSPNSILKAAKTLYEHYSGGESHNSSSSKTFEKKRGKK
Chain of Mitogen-activated protein kinase kinase kinase 9 (Homo sapiens) (P80192 whole entry, looked up): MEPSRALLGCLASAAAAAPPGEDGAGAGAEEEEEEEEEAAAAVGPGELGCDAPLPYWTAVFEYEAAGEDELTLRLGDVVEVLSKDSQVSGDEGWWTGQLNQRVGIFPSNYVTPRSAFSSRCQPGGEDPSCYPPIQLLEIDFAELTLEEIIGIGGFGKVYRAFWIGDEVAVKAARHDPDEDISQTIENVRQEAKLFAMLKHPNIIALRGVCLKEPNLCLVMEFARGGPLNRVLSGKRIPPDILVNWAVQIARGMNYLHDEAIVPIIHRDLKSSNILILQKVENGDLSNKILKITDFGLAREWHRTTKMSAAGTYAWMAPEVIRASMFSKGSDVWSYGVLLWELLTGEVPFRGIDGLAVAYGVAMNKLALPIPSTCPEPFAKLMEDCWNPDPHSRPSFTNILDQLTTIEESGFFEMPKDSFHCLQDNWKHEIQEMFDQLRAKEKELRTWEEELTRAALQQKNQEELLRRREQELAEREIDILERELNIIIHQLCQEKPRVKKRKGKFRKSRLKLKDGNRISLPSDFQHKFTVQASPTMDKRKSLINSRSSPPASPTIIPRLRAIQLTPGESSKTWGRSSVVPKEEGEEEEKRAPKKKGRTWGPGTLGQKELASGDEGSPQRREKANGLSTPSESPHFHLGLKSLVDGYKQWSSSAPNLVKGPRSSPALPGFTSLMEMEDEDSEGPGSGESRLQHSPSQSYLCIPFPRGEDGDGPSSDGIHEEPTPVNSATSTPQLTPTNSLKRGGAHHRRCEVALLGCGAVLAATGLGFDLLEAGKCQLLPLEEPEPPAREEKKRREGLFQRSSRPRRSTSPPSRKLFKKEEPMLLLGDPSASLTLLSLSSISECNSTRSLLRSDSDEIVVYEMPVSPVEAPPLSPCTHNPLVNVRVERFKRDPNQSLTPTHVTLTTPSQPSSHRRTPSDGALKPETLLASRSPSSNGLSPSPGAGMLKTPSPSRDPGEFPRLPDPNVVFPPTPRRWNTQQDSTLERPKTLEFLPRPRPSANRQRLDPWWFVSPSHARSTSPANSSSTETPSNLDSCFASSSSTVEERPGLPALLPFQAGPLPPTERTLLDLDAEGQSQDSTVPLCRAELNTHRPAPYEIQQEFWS
Chain of Calcium/calmodulin-dependent protein kinase kinase 1 (Homo sapiens) (Q8N5S9 whole entry, looked up): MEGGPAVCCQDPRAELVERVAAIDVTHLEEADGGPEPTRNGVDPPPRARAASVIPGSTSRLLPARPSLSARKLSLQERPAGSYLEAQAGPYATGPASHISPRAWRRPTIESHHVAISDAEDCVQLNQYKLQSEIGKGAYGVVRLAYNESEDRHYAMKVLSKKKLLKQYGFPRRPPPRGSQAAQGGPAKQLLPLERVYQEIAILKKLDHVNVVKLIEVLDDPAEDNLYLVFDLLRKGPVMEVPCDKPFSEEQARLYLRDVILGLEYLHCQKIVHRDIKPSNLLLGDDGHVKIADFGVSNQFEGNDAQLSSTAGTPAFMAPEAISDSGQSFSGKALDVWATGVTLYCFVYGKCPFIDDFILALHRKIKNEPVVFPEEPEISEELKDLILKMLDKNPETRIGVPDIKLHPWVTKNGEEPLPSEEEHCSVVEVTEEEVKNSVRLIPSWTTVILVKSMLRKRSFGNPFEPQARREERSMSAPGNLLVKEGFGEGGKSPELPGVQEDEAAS
Chain of Tyrosine-protein kinase Fer (Homo sapiens) (P16591 whole entry, looked up): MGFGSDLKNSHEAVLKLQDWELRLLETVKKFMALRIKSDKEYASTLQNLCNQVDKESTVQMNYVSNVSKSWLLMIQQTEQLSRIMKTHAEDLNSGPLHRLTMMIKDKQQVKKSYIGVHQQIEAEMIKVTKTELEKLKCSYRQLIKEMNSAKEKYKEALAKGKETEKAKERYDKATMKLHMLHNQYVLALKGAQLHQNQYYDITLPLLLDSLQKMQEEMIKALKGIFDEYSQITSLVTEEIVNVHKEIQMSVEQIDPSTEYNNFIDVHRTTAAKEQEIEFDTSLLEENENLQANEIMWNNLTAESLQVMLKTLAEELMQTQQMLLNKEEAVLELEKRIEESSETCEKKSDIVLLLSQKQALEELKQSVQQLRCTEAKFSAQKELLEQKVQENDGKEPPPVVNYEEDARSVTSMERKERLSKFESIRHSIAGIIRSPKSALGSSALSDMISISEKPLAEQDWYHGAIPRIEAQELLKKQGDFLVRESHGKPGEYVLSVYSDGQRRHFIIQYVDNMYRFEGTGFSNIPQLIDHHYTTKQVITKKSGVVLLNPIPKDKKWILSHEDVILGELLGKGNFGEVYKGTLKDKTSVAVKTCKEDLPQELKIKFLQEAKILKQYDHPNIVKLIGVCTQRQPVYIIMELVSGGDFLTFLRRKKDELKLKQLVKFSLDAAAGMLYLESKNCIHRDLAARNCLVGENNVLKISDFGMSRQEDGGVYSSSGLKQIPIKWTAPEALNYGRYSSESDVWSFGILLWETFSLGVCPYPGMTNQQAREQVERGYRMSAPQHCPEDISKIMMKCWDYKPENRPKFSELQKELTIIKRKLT

SMILES: CCC(CO)Nc1ncc2cc(C(=O)N(C)C)n(C3CCCC3)c2n1 (centres undefined)
- IC50 [1]: 523 nM
- IC50 (MIA PaCa-2 [2]): 31000 nM

SMILES: CN(C)C(=O)c1cc2cnc(Nc3ccc(N4CCNCC4)cn3)nc2n1Cc1ccccc1
- IC50 [1]: > 100000 nM
- IC50 (MIA PaCa-2 [2]): 30400 nM

SMILES: O=C(Nc1ccccc1)c1cc2cnc(N3CCN(c4ccc(Cl)cc4)CC3)nc2n1C1CCCC1
- IC50 [1]: > 100000 nM
- IC50 (MIA PaCa-2 [2]): > 200000 nM

SMILES: COc1cccc(NC(=O)c2cc3cnc(Nc4ccc(N5CCNCC5)cn4)nc3n2C2CCCC2)c1
- IC50 [1]: 53.4 nM
- IC50 (MIA PaCa-2 [2]): 2650 nM
- IC50 (BXPC-3): 10500 nM
- IC50 (CDK6/cyclin D1): 169 nM

SMILES: CC(=O)c1c(C)c2cnc(Nc3ccc(N4CCNCC4)cn3)nc2n(C2CCCC2)c1=O [PALBOCICLIB]
- IC50 (MIA PaCa-2 [2]): 10600 nM

Second part, led by results:

- Papp [4]: < 1 ×10⁻⁶ cm/s
- Papp [7]: 123 ×10⁻⁶ cm/s
- half-life [10]: 2.44 h
- IC50 (MIA PaCa-2 [2]): 10700 nM
- half-life [11]: > 0.5 h
- IC50 (BXPC-3): 68400 nM
- solubility [13]: > 64 µg/mL
SMILES: CN(C)C(=O)c1cc2cnc(Nc3ccc(N4CCNCC4)cn3)nc2n1C1CCCC1 [RIBOCICLIB]
- Activity (MIA PaCa-2 [3]): 5.47%
- Activity (MIA PaCa-2 [5]): 4.09%
- Activity (MIA PaCa-2 [6]): 22.12%
- Activity (MIA PaCa-2 [8]): 18.72%
- Activity (MIA PaCa-2 [9]): 77.2%
- Activity (MIA PaCa-2 [12]): 27.53%
- Activity (MIA PaCa-2 [14]): 5.5%
- Activity (MIA PaCa-2 [15]): 72.41%
- Activity (MIA PaCa-2 [16]): 66.97%

- IC50 [1]: 60.3 nM
- inhibition [17]: Active
- IC50 (MIA PaCa-2 [2]): 3160 nM
- IC50 (BXPC-3): 8040 nM
- IC50 (CDK6/cyclin D1): 666 nM
- inhibition [18]: Active
SMILES: O=C(Nc1ccccc1C(F)(F)F)c1cc2cnc(Nc3ccc(N4CCNCC4)cn3)nc2n1C1CCCC1

- IC50 [1]: 92.9 nM
- IC50 (MIA PaCa-2 [2]): 54900 nM
SMILES: CN(C)C(=O)c1cc2cnc(Nc3ccccc3)nc2n1C1CCCC1

- IC50 [1]: 121 nM
- IC50 (MIA PaCa-2 [2]): 2880 nM
- IC50 (BXPC-3): 8970 nM
- IC50 (CDK6/cyclin D1): 391 nM
SMILES: COc1ccc(NC(=O)c2cc3cnc(Nc4ccc(N5CCNCC5)cn4)nc3n2C2CCCC2)cc1

- Papp [4]: 517 ×10⁻⁶ cm/s
- inhibition [19]: > 80%
- Papp [7]: 464 ×10⁻⁶ cm/s
- IC50 [1]: 20.5 nM
- inhibition [21]: > 80%
- inhibition [22]: > 80%
- inhibition [23]: > 80%
- inhibition [17]: Active
- half-life [10]: 1.21 h
- IC50 (MIA PaCa-2 [2]): 1830 nM
- inhibition [25]: > 80%
- inhibition [26]: > 80%
- inhibition [28]: > 80%
- half-life [11]: > 0.5 h
- inhibition [29]: > 80%
- IC50 (BXPC-3): 4120 nM
- solubility [13]: 1.1 µg/mL (≈ 2.15 µM)
- IC50 (CDK6/cyclin D1): 52.3 nM
- inhibition [18]: Active
SMILES: COc1ccccc1NC(=O)c1cc2cnc(Nc3ccc(N4CCNCC4)cn3)nc2n1C1CCCC1
- Activity (MIA PaCa-2 [3]): 3.69%
- Activity (MIA PaCa-2 [5]): 4.06%
- Activity (MIA PaCa-2 [6]): 30.8%
- Activity (MIA PaCa-2 [8]): 21.63%
- Activity (MIA PaCa-2 [9]): 74.31%
- Ratio IC50 (MIA PaCa-2 [20]): 10
- Activity (MIA PaCa-2 [24]): Active
- Activity (MIA PaCa-2 [27]): Dose-dependent effect
- Activity (MIA PaCa-2 [12]): 35.15%
- Activity (MIA PaCa-2 [14]): 4.85%
- Activity (MIA PaCa-2 [30]): Active
- Activity (MIA PaCa-2 [15]): 65.48%
- Activity (MIA PaCa-2 [16]): 60%

- IC50 [1]: 23 nM
- inhibition [17]: Active
- IC50 (MIA PaCa-2 [2]): 2170 nM
- IC50 (BXPC-3): 4350 nM
- IC50 (CDK6/cyclin D1): 52.8 nM
- inhibition [18]: Active
SMILES: O=C(Nc1ccccc1Cl)c1cc2cnc(Nc3ccc(N4CCNCC4)cn3)nc2n1C1CCCC1

- IC50 [1]: 3050 nM
- IC50 (MIA PaCa-2 [2]): 124000 nM
SMILES: O=C(Nc1ccc[n+]([O-])c1)c1cc2cnc(Nc3ccc(N4CCNCC4)cn3)nc2n1C1CCCC1

Reference: ChEMBL document CHEMBL4673362, “Design, synthesis, and biological evaluation of 2,6,7-substituted pyrrolo[2,3-d]pyrimidines as cyclin dependent kinase inhibitor in pancreatic cancer cells” (Bioorg Med Chem Lett, 2021)
